Where two headings read alike, the source gives them in different places. *1 amine or outer side, *2 acyl side, *3 side chain or, on linkers, in order; H or OH if unused. Where a SMILES comes first, the peptide text is derived from it. [ ]: non-standard residue; d: D form. X3 = CC(CC(O[*:1])C(=O)[*:2])C(=O)O; NMeV = CN[CH](C(=O)O)C(C)C; NMeA = CN[CH](C)C(=O)O; βAla = NCCC(=O)O
Legend:
[1] = system: ZIKV-RLuc (Cambodian strain FSS13025); experiment: microbe, parasite or virus in culture; assay type: cell-based, Zika virus
[2] = Zika virus, Vero, read-out: Log AC50 (M) (converted)

Compound	CC-v2 (curve class classification v2 of the dose response curve) [1]	Efficacy (difference between neutral response and maximum compound response) [1]	Max Resp (difference between neutral response and compound response for highest compound concentration) [1]	AC50 ([1]; Zika virus, Vero) [M]	AC50 [1, 2] [M]	AC50 (Vero cells) [µM]	Log AC50 (M) (Vero cells)	AC50 [1] [M]	Log AC50 (M) [1]
CCOC(CN1C(=O)[C@](CC(=O)Nc2ccc(C)cc2)(NC(=O)Nc2ccc(C)cc2)c2ccccc21)OCC [NCGC00263225-01]	-2.1	-106.258	-97.88	2.33e-05	2.33e-05	23.3	-4.6327		
Cc1ccc(NC(=O)c2ccc(CN3CC[C@H](N(C)C)C3)c(C(F)(F)F)c2)cc1Nc1ncc(-c2cncnc2)cn1 [NCGC00346514-01]	-2.1	-111.251	-100.269	1.65e-05	1.65e-05	16.5	-4.7827		
O=C(CCCCCCNC(=O)c1cnc(N(c2ccccc2)c2ccccc2)nc1)NO [NCGC00345802-01]	-2.1	-102.183	-84.021	1.85e-05	1.85e-05	18.5	-4.7327		
C/C=C1\NC(=O)[C@H]2CSSCC/C=C\[C@H](CC(=O)N[C@H](C(C)C)C(=O)N2)OC(=O)[C@H](C(C)C)NC1=O [NCGC00263220-05]	-1.1	-96.055	-99.405	2.33e-07	2.33e-07	0.233	-6.6327		
CC(C)c1cc(-c2n[nH]c(=O)n2-c2ccc3c(ccn3C)c2)c(O)cc1O [NCGC00346678-04]	-2.2	-65.758	-62.389			9.28	-5.0327	9.28e-06	-5.0327
CCCCc1ccc(N[S+](=O)([O-])c2ccc(C)c(C(=O)N3CCN(c4cccc(C)c4C)CC3)c2)cc1 [NCGC00263234-01]	-3	-38.307	-30.256	7.59e-05	7.59e-05				
CCc1ccc(C(=O)Nc2cc(CN3CCN(C)CC3)cc(C(F)(F)F)c2)cc1C#Cc1cnc2ccnn2c1 [NCGC00347217-02]	-3	-116.826	-100.407						
COc1c(O)c(C(=O)/C=C/c2ccccc2)c(OC)c(OC)c1OC [NCGC00384644-01]	4		-2.089						
CCCCCCCCCCC[C@@H](C[C@@H]1OC(=O)[C@H]1CCCCCC)OC(=O)C(CC(C)C)NC=O (stereo partly drawn) [NCGC00165856-03]	-3	0	-33.733						
CC1(C)C=Cc2c(ccc(C(=O)/C=C/c3ccccc3)c2O)O1 [NCGC00187466-03]	4		-35.49						
CC1OC(OC2C(c3c(O)cc(OC4OC(CO)C(O)C(O)C4O)c4c(=O)cc(-c5ccc(O)cc5)oc34)OC(CO)C(O)C2O)C(O)C(O)C1O (stereo not drawn) [NCGC00384535-01]	4		-6.059						
CN(C)c1cccc(-c2c3c(=O)n(-c4ccccc4Cl)[nH]c3cc(=O)n2C)c1 [NCGC00378460-01]	4	10.267	14.909						
CN1CCC(=C2c3ccccc3CCc3sccc32)CC1 [NCGC00163169-02]	4	14.14	-9.44						
CCC(C)C(O)C(=O)OC1CC2C(C)(C)C(OC(C)=O)CC(OC(C)=O)C2(C)C2CC(OC(C)=O)C3(C)C(=CCC3c3ccoc3)C12C (stereo not drawn) [NCGC00385571-01]	-3	0	-47.611						
CC1=CC(=O)C(=C(C)C)CC2C(C)(O)CCC12O (stereo not drawn) [NCGC00385849-01]	-1.2	-35.641	-12.132						
COc1ccc(/C=C/C(=O)/C=C/c2ccc(OC)cc2)cc1 [NCGC00336197-02]	3	41.267	6.905						
CC[C@@H]1C(=O)N(C)c2cnc(Nc3ccc(C(=O)NC4CCC(N5CCN(CC6CC6)CC5)CC4)cc3OC)nc2N1C(C)C (stereo partly drawn) [NCGC00263087-01]	4	12.227	10.387						
CCN(CC)Cc1cc(Nc2ccnc3cc(Cl)ccc23)ccc1O [NCGC00017063-03]	4	28.757	20.219						
CN1CCN(CCCN2c3ccccc3Sc3ccc(S(=O)(=O)N(C)C)cc32)CC1.CS(=O)(=O)O.CS(=O)(=O)O [NCGC00017040-01]	4	-28.971	-22.476						
Cc1cccc(C)c1OCC(=O)N[C@@H](Cc1ccccc1)[C@@H](O)C[C@H](Cc1ccccc1)NC(=O)[C@H](C(C)C)N1CCCNC1=O [NCGC00164576-04]	4		-20.627						
CCC(C)C1NC(=O)C2CCCN2C(=O)C(CC(C)C(=O)O)OC(=O)CCNC(=O)C(C)N(C)C(=O)C(C(C)C)N(C)C1=O (stereo not drawn) [NCGC00380598-01] (cyclo([X3]PI[NMeV][NMeA][βAla]); configuration not given here)	4	-20.973	-24.561						
CC(C)COCC(CN(Cc1ccccc1)c1ccccc1)N1CCCC1 (stereo not drawn) [NCGC00015155-11]	-2.2	-53.208	-86.237						
